# Legend:
# rat heart tissue = experiment: GENECALLING differential gene expression analysis after dosing of serotonin modulating agents; assay type: in vivo, Sprague Dawley rats
# Summary of the method: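 GENECALLING profiling of cDNA from total RNA, keeping gene fragments modulated beyond ±1.5-fold. Tissue collected 24 h after final dosing of serotonin modulating agents; control rats received sterile water or canola oil.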
# [1] = grouping used to generate the distinguishing gene profiles; cited from earlier work
compound,measurement,setting,value
CN1C[C@H](C(=O)N[C@]2(C)O[C@@]3(O)[C@@H]4CCCN4C(=O)[C@H](Cc4ccccc4)N3C2=O)C[C@@H]2c3cccc4[nH]cc(c34)C[C@H]21 [dihydroergotamine],"Effects on Transcription Level: Novel gene fragment, 535 bp, 90% SI to mouse slow/cardiac troponin C [M29793]",rat heart tissue; CARDIOTOX 71,−1.7 fold
same,"Effects on Transcription Level: Novel gene fragment, 445 bp, 85% SI to human skeletal muscle alpha 2 actinin [M86406]",rat heart tissue; CARDIOTOX 72,−2.0 fold
same,"Effects on Transcription Level: Novel gene fragment, 246 bp, 89% SI to mouse ponsin-1 [AF078667]",rat heart tissue; CARDIOTOX 73,−3.5 fold
same,"Effects on Transcription Level: Novel gene fragment, 126 bp, 77% SI to human DNA sequence from cosmid V311G7, between markers DXS366 and DXS87 on chromosome X [Z69304]",rat heart tissue; CARDIOTOX 74,+1.8 fold
same,"Effects on Transcription Level: Novel gene fragment, 370 bp",rat heart tissue; CARDIOTOX 75,−2.0 fold
same,"Effects on Transcription Level: Novel gene fragment, 337 bp, 78% SI to novel human protein AHNAK [M80899]",rat heart tissue; CARDIOTOX 76,−4.1 fold
same,"Effects on Transcription Level: Novel gene fragment, 100 bp, 93% SI to human KIAA0750 protein [ABO18293]",rat heart tissue; CARDIOTOX 77,−9.3 fold
same,"Effects on Transcription Level: Novel gene fragment, 44 bp",rat heart tissue; CARDIOTOX 78,−9.0 fold
same,"Effects on Transcription Level: Novel gene fragment, 698 bp, 93% SI to mouse plenty-of-prolines-101 [AF062655]",rat heart tissue; CARDIOTOX 79,−1.9 fold
same,"Effects on Transcription Level: Novel gene fragment, 660 bp, 84% SI to mouse membrane protein TMS-2 [AF181685]",rat heart tissue; CARDIOTOX 80,−3.0 fold
same,"Effects on Transcription Level: Novel gene fragment, 115 bp",rat heart tissue; CARDIOTOX 81,−7.5 fold
same,"Effects on Transcription Level: Novel gene fragment, 294 bp, 95% SI to mouse Ndr1 related protein Ndr2 [AB033921]",rat heart tissue; CARDIOTOX 82,−3.3 fold
same,"Effects on Transcription Level: Novel gene fragment, 198 bp",rat heart tissue; CARDIOTOX 83,+2.6 fold
same,"Effects on Transcription Level: Novel gene fragment, 730 bp, 86% SI to mouse E800 [Y10968]",rat heart tissue; CARDIOTOX 84,−1.7 fold
same,"Effects on Transcription Level: Novel gene fragment, 294 bp, 98% SI to cysteine conjugate beta-lyase [S61960]",rat heart tissue; CARDIOTOX 85,−1.7 fold
same,Effects on Transcription Level: Aconitase,"rat heart tissue; CARDIOTOX 86, GenBank A1243266",−3.2 fold
same,Effects on Transcription Level: Ribosomal protein L7,"rat heart tissue; CARDIOTOX 87, GenBank M17422",+2.7 fold
same,Effects on Transcription Level: Ribosomal protein L9,"rat heart tissue; CARDIOTOX 88, GenBank X51706",+5.0 fold
same,Effects on Transcription Level: Ribosomal protein L12,"rat heart tissue; CARDIOTOX 89, GenBank X53504",−2.0 fold
same,"Effects on Transcription Level: 18S, 5.8S, and 28S ribosomal RNA's","rat heart tissue; CARDIOTOX 90, GenBank V01270",+2.6 fold
same,Effects on Transcription Level: Pyruvate dehydrogenase kinase 2 (PDK2),"rat heart tissue; CARDIOTOX 91, GenBank U10357",−5.8 fold
same,Effects on Transcription Level: D-Binding Protein (DBP),"rat heart tissue; CARDIOTOX 92, GenBank J03179",−1.5 fold
same,Effects on Transcription Level: Lipoprotein lipase,"rat heart tissue; CARDIOTOX 93, GenBank L03294",−2.2 fold
same,Effects on Transcription Level: Non-neuronal enolase,"rat heart tissue; CARDIOTOX 94, GenBank X02610",+3.1 fold
same,Effects on Transcription Level: Glycogen phosphorylase (muscle isozyme),"rat heart tissue; CARDIOTOX 95, GenBank L10669",−2.7 fold
same,Effects on Transcription Level: Cytochrome c oxidase subunit IV,"rat heart tissue; CARDIOTOX 96, GenBank X14209",+4.1 fold
same,Effects on Transcription Level: Alpha-globin,"rat heart tissue; CARDIOTOX 97, GenBank M17083",+3.9 fold
same,Effects on Transcription Level: Beta-globin,"rat heart tissue; CARDIOTOX 98, GenBank X06701",+3.3 fold
same,Effects on Transcription Level: Myoglobin,"rat heart tissue; CARDIOTOX 99, GenBank AF197916",+3.9 fold
same,Effects on Transcription Level: Titin,"rat heart tissue; CARDIOTOX 100, GenBank L38717",−5.4 fold
same,Effects on Transcription Level: Skeletal muscle actin,"rat heart tissue; CARDIOTOX 101, GenBank V01218",−14.3 fold
same,Effects on Transcription Level: Myosin light chain 2 (MLC2),"rat heart tissue; CARDIOTOX 102, GenBank M11851",−1.5 fold
same,Effects on Transcription Level: Alpha cardiac myosin heavy chain,"rat heart tissue; CARDIOTOX 103, GenBank X15938",−2.5 fold
same,Effects on Transcription Level: Troponin I,"rat heart tissue; CARDIOTOX 104, GenBank U77354",+1.5 fold
same,Effects on Transcription Level: Cardiac calsequestrin,"rat heart tissue; CARDIOTOX 105, GenBank AF001334",−2.1 fold
same,Effects on Transcription Level: Sulfated glycoprotein 2,"rat heart tissue; CARDIOTOX 106, GenBank M16975",−1.6 fold
same,Effects on Transcription Level: Aquaporin 7,"rat heart tissue; CARDIOTOX 107, GenBank AB000507",+1.7 fold
same,Effects on Transcription Level: Carnitine/acylcarnitine carrier protein,"rat heart tissue; CARDIOTOX 108, GenBank X97831",−2.8 fold
same,Effects on Transcription Level: Glu-Pro Dipeptide Repeat,"rat heart tissue; CARDIOTOX 109, GenBank U40628",−5.1 fold
same,Effects on Transcription Level: Cystatin beta,"rat heart tissue; CARDIOTOX 110, GenBank X54737",+2.6 fold
same,"Effects on Transcription Level: Novel gene fragment, 593 bp, 90% SI to human calcineurin B-like protein [Z08983]",rat heart tissue; CARDIOTOX 111,+1.7 fold
same,"Effects on Transcription Level: Novel gene fragment, 179 bp, 88% SI to human titin [X90568]",rat heart tissue; CARDIOTOX 112,+6.0 fold
same,"Effects on Transcription Level: Novel gene fragment, 700 bp, 91% SI to mouse periplakin (PPL) [AF116523]",rat heart tissue; CARDIOTOX 113,+1.7 fold
same,Effects on Transcription Level: Long chain acyl-CoA dehydrogenase (LCAD),"rat heart tissue; CARDIOTOX 114, GenBank J05029",+1.5 fold
same,Effects on Transcription Level: Sulfated glycoprotein 1 (SGP-1),"rat heart tissue; CARDIOTOX 115, GenBank M19936",−1.7 fold
same,Effects on Transcription Level: Catalase,"rat heart tissue; CARDIOTOX 116, GenBank M11670",+1.6 fold
same,Effects on Transcription Level: Alpha-fodrin (A2A) (Nonerythroid spectrin alpha subunit),"rat heart tissue; CARDIOTOX 117, GenBank AF084186",−1.5 fold
same,Effects on Transcription Level: Cardiac specific sodium channel alpha-subunit,"rat heart tissue; CARDIOTOX 118, GenBank M27902",−1.6 fold
same,Effects on Transcription Level: Glu-Pro Dipeptide Repeat,"rat heart tissue; CARDIOTOX 119, GenBank U40628",+1.9 fold
same,"Effects on Transcription Level: Novel gene fragment, 200 bp, 64% SI to human KIAA0733 protein [AB018316]",rat heart tissue; CARDIOTOX 120,−1.2 fold
same,Effects on Transcription Level: RNA polymerase II transcription factor SIII (p18 subunit),"rat heart tissue; CARDIOTOX 121, GenBank L42855",+1.4 fold
same,Effects on Transcription Level: Protein-tyrosine phosphalase (LRP),"rat heart tissue; CARDIOTOX 122, GenBank L01702",+1.4 fold
same,Effects on Transcription Level: Skeletal muscle selenoprotein W (SelW),"rat heart tissue; CARDIOTOX 123, GenBank U25264",−1.4 fold
same,Effects on Transcription Level: Sarcoplasmic reticulum 2+-Ca-ATPase,"rat heart tissue; CARDIOTOX 124, GenBank X15635",−1.2 fold
same,Effects on Transcription Level: Ribosomal protein S7,"rat heart tissue; CARDIOTOX 125, GenBank X53377",+1.7 fold
same,Effects on Transcription Level: Ribophorin I,"rat heart tissue; CARDIOTOX 126, GenBank X05300",+1.5 fold
same,Effects on Transcription Level: Beta cardiac myosin heavy chain,"rat heart tissue; CARDIOTOX 127, GenBank X15939",−1.6 fold
same,Effects on Transcription Level: ADP-ribosylation factor 1,"rat heart tissue; CARDIOTOX 128, GenBank L12380",+1.3 fold
same,Effects on Transcription Level: Laminin receptor,"rat heart tissue; CARDIOTOX 129, GenBank U04942",+1.1 fold
same,"Effects on Transcription Level: Novel gene fragment, 206 bp, 89% SI to human seryl-tRNA synthetase [X91257]",rat heart tissue; CARDIOTOX 130,+2.0 fold
same,Effects on Transcription Level: Annexin VI,"rat heart tissue; CARDIOTOX 131, GenBank X86086",+3.5 fold
same,"Effects on Transcription Level: Novel gene fragment, 325 bp, 90% SI to mouse N-RAP [U76618]",rat heart tissue; CARDIOTOX 132,+1.4 fold
same,"Effects on Transcription Level: Novel gene fragment, 61 bp (CARDIOTOX 134)",rat heart tissue; LD10 dose for three days,−1.1 fold
same,"Effects on Transcription Level: Novel gene fragment, 337 bp (CARDIOTOX 133)",rat heart tissue; LD10 dose for three days,−1.2 fold
same,"Effects on Transcription Level: Novel gene fragment, 378 bp, 88% SI to human coatomer protein (COPA) [U24105] (CARDIOTOX 138)",rat heart tissue; LD10 dose for three days,+1.2 fold
same,Effects on Transcription Level: Long chain 3-ketoacyl-CoA thiolase (CARDIOTOX 136),"rat heart tissue; LD10 dose for three days, GenBank D16479",−1.2 fold
same,Effects on Transcription Level: TATA-binding protein interacting protein 120 (TIP120) (CARDIOTOX 135),"rat heart tissue; LD10 dose for three days, GenBank D87671",+1.1 fold
same,Effects on Transcription Level: Serine protease (CARDIOTOX 139),"rat heart tissue; LD10 dose for three days, GenBank D88250",+1.2 fold
same,Effects on Transcription Level: Thymosin beta-4 (CARDIOTOX 137),"rat heart tissue; LD10 dose for three days, GenBank M34043",+1.6 fold
same,classification as cardiotoxic or noncardiotoxic serotonin modulating agent,[1],cardiotoxic

# Reference: patent US20040005537A1, “Method of identifying toxic agents using differential gene expression” (priority 2000, published 2004)
